Measured values as given in patent US20080153872A1, “Bis-(Coumarin) Compounds With Anti-Inflammatory Activity” (priority 2005, published 2008).

Legend:
CD1 mice = assay: PMA induced ear oedema in CD1 mice; format: in vivo, mouse; conditions: topical, single dose of 250 or 100 μg/15 μL/ear; statistically significant vs positive control
Experimental: Male CD1 mice (Iffa Credo, France) weighing ˜35-40 g were randomly grouped (n=8 in vehicle treated test group, dexamethasone treated control group as well as in groups treated with compounds to be assayed). Test compounds, dexamethasone as well as vehicle (Trans-phase Delivery System, containing benzyl alcohol 10%, acetone 40% and isopropanol 50%) (all from Kemika, Croatia), were administered topically to the internal surface of the left ear thirty minutes prior to administration of phorbol 12-myristate 13-acetate (PMA) (Alexis biochemicals, USA). Test compounds were administered at a single dose of 250 or 100 μg/15 μL/ear and dexamethasone at a single dose of 50 μg/15 μL/ear. Thirty minutes later, 0.01% PMA solution in acetone was applied topically to the same area of each animal in a volume of 12 μL/ear. During the treatment and challenge, animals were anaesthetized by using inhalation anaesthesia. Six hours after the challenge, animals were euthanized by asphyxiation in 100% CO2 atmosphere. For assessing the auricular oedema, 8 mm discs were cut out of left and right auricular pinna and weighed. The degree of oedema was calculated by subtracting the weight of 8 mm disc of the untreated ear from that of the treated contralateral ear.

human 5-LO = biological target: T1, human 5-LO (Homo sapiens, UniProt P09917); assay: Human 5-Lipoxygenase, 5-LO, assay in peripheral mononuclear blood cells; format: cell-based; conditions: 10 μM concentration, LTB4 readout
T1 construct: Human peripheral mononuclear blood cells were isolated using Ficoll density separation; endogenous in cells; host or cells: human peripheral blood mononuclear cells
T1 sequence (P09917 1-674): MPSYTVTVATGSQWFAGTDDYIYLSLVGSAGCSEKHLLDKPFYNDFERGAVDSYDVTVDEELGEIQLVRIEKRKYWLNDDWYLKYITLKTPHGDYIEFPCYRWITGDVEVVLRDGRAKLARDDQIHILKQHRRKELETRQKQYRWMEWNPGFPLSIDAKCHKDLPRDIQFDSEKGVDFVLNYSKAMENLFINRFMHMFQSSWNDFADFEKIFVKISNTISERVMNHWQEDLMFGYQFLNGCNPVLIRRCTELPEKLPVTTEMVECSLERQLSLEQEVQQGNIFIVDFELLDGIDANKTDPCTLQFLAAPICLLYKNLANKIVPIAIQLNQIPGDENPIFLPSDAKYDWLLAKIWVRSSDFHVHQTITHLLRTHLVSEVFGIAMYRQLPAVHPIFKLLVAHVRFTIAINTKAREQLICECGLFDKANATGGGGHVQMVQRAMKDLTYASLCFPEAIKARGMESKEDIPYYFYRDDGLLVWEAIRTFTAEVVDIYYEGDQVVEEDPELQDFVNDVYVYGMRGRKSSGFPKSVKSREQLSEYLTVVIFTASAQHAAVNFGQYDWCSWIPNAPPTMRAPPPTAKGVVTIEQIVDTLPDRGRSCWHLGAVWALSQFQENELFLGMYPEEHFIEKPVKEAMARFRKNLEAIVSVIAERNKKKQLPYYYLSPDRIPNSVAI
Experimental: (§1) All compounds were dissolved in dimethyl sulfoxide (DMSO). Final concentration of the DMSO in all tests was 1% (v/v). Inhibition in all tests is considered preferred if it exceeds 50% at 10 μM concentration (or less).
Human peripheral mononuclear blood cells were isolated using Ficoll density separation. Cells were incubated in Hanks Balanced Salt Solution (HBSS) with compounds for 15 minutes at 37° C. Substrate (arachidonic acid) was added in 20 μM final concentration and cells were incubated for another 15 minutes. LTB4 as a final product of arachidonic acid metabolism was measured using competitive enzyme immunoassay (See, e.g., Safayhi, H. et al. Planta Medica 2000, 66, 110-113) and percentage of inhibition was calculated from the levels of LTB4 in cell supernatant.

CysLT1 receptor = biological target: T2, CysLT1 receptor (Homo sapiens, UniProt Q9Y271); assay: Human cysteinyl leukotriene receptor 1 (CysLT1) radioligand binding assay; conditions: 10 μM concentration; CHO-K1 cells
T2 construct: expressed in transfected cells; host or cells: CHO-K1
T2 sequence (Q9Y271 1-337): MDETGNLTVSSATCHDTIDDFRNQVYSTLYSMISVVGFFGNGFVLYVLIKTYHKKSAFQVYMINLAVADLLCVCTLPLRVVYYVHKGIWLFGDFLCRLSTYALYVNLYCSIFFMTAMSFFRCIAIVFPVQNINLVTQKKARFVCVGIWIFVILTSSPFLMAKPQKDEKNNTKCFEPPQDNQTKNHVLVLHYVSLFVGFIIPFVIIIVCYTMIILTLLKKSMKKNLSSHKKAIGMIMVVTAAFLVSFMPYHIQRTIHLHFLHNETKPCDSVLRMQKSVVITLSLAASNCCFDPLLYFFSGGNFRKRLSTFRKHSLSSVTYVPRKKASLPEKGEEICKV
Experimental: as §1
CysLT1 receptor is involved in immune diseases such as asthma, and has clinical significance as a point of intervention in asthma therapy. CysLT1 receptor is expressed in CHO-K1 cells (Chinese hamster ovary cells K1 clone). This is a competitive radioligand binding assay where substances compete with [^3H]-labeled Leulcotirene D4 (LTD4). Radioactive substance is measured with scintillation counting. Percentage of inhibition is calculated from the total radioactivity of the sample.

human PDE3 = biological target: T3, human PDE3 (Homo sapiens, UniProt Q14432); assay: Human PDE3 assay (platelets); format: biochemical; conditions: 10 μM concentration
T3 construct: Isolated human platelets are pre-incubated at 25° C; from tissue; host or cells: human platelets
T3 sequence (Q14432 whole entry): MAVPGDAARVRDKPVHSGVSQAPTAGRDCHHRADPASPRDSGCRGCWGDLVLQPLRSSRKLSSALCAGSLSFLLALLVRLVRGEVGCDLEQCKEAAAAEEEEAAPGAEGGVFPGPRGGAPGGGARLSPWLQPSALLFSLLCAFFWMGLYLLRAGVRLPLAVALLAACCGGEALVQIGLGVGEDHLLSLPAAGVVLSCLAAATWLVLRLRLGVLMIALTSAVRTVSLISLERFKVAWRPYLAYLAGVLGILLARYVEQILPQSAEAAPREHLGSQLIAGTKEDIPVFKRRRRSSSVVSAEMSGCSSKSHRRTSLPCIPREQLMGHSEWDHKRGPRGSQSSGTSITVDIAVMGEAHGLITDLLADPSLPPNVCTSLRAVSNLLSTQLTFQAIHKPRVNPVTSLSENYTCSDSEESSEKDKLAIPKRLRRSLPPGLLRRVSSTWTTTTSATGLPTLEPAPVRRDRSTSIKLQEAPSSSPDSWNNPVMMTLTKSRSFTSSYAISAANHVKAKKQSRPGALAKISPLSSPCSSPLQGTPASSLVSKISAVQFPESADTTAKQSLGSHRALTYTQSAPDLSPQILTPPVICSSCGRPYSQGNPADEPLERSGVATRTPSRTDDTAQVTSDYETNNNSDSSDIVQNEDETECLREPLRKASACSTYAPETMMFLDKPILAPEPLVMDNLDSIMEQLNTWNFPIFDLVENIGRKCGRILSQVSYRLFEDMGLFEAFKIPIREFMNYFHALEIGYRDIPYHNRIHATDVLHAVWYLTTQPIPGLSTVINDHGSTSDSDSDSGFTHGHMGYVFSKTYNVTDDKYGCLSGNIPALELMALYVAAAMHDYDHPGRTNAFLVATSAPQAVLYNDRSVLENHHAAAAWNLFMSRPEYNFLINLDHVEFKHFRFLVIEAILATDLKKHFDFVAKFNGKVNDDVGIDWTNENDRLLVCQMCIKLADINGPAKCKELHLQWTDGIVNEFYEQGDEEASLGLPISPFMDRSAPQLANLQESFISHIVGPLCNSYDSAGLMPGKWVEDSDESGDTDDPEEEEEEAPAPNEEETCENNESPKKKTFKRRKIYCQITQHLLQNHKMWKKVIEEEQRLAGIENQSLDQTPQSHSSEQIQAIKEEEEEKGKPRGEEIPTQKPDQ
Experimental: as §1
(§2) PDE3 assay. Isolated human platelets are pre-incubated at 25° C. in Tris-HCl buffer containing magnesium ions for 15 minutes. 1.01 μM tritium labeled cyclic adenosine monophosphate (cAMP) is added as substrate, followed by incubation at 25° C. for 20 minutes. Percentage of inhibition is calculated by comparing the adenosine levels in supernatant which is formed from cAMP in treated versus control cells.

human PDE4 = assay: Human PDE4 assay (U937); format: biochemical; conditions: 10 μM concentration
Experimental: as §1
as §2, with “PDE4” for “PDE3”, “PDE is implicated in diseases such as chronic obstructive pulmonary disease and neutrophilia. Human monocytic leukemia cell line U937 is” for “Isolated human platelets are”

[1] = tested on: Human prostanoid receptor; assay: Human prostanoid receptor assay ([3H]-PGD2 competition); format: binding; conditions: 10 μM concentration; CHO-K1
Experimental: as §1
Human prostanoid receptor is expressed in Chinese hamster ovary cell line, clone K1 (CHO-K1). Substances and radioactive competitor (tritium labelled Prostaglandin D2 in 1.7 nM concentration) are incubated with cells in HEPES buffer for 2 hours at 25° C. in the presence of manganese ions. Level of the bound PGD2 is measured by scintillation counting, and competition is calculated from comparing the total amount of the bound PGD2 in treated versus control cells. Prostanoids are involved in many physiological and pathological processes, from inflammation to pain.

TxA2 receptor = biological target: T4, TxA2 receptor (Homo sapiens, UniProt P21731); assay: Human thromboxane A2, TxA2, assay (SQ-29548 competition); format: binding; conditions: 10 μM concentration; HEK-293
T4 construct: expressed in transfected cells; host or cells: HEK-293
T4 sequence (P21731 1-343): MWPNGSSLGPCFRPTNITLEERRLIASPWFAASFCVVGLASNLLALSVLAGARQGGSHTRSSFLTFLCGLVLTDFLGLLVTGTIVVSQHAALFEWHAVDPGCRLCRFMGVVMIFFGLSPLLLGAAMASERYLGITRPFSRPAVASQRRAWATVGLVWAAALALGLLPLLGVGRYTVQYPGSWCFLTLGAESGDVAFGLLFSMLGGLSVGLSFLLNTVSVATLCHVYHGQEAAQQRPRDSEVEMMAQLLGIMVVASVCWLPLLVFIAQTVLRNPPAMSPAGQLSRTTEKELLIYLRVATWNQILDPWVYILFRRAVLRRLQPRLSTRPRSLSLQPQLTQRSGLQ
Experimental: as §1
TxA2 receptor is expressed in HEK-293 cell line. Compounds and radiolabelled competitor SQ-29548 are incubated for 30 minutes at 25° C. Level of bound SQ-29548 is measured by scintillation counting, and competition is calculated from the total amount of the bound SQ-29548. […] is an unstable lipid mediator involved in blood clotting, and immune processes.

IL-5 = assay: Inhibition of IL-5 production by ConA stimulated mouse splenocytes; format: cell-based; conditions: 25 μM
Experimental: Spleen cell suspension was obtained from BALB/c mice and lymphocytes separated by gradient density centrifugation on Histopaque 1.083 on 400 g for 30 minutes. They were washed once in medium, counted and their number adjusted as 3×10^5/200 μL/well in 96 flat bottomed culture plate in RPMI supplemented with 10% fetal bovine serum. Cells were stimulated on cytokine production by adding concanavalinA (ConA) at 5 μg/mL final concentration. Unstimulated cells were cultured in medium alone. Stock solution was prepared out of testing compounds as 10 mM in DMSO. Final concentrations made in cell culture medium were tested when they had been added together with ConA. After 72 hours incubation period cell culture supernatants were collected. In each sample IL-4, IL-5, IL-10 and IFNγ were detected and quantified using enzyme linked immunosorbent assay (ELISA) specific for pointed cytokines (R&D Systems).
To calculate results, standard curve was made out of measured OD values for recombinant protein in known concentrations. Cytokine content in unknown samples was calculated out of OD values extrapolated from the standard curve.
Percentage of inhibition is calculated using formula:
% Inhibition=(1−cytokine concentration of sample/cytokine concentration of positive control)×100.

For `CCc1ccc2oc(=O)c(C(CO)c3c(O)c4cc(CC)ccc4oc3=O)c(O)c2c1` [Example 29], which “suppression of ear oedema” value (CD1 mice) is on record?
The value was “considered active”.

Which results are given for `O=c1oc2ccccc2c(O)c1C(c1cnc2ccccc2c1)c1c(O)c2ccccc2oc1=O` [Example 351]?
inhibition of human 5-LO (human 5-LO): significantly relevant activity; CysLT1 receptor, competition with [3H]-LTD4 (CysLT1 receptor): significantly relevant activity; inhibition of human PDE3 activity (human PDE3): significantly inhibited; inhibition of human PDE4 activity (human PDE4): significantly inhibited; human prostanoid receptor, competition with tritium labelled PGD2 [1]: significantly relevant activity; suppression of ear oedema (CD1 mice): considered active

For `O=c1oc2ccccc2c(O)c1C(c1cccc(Cl)c1)c1c(O)c2ccccc2oc1=O` [Example 66], which “suppression of ear oedema” value (CD1 mice) is on record?
Its value is “considered active”.

How did the “suppression of ear oedema” value (CD1 mice) turn out when `Cc1cc2oc(=O)c(C(C(=O)OCCO)c3c(O)c4cc(Cl)c(C)cc4oc3=O)c(O)c2cc1Cl` [Example 54] was run?
Its value is “considered active”.

With `CC(=O)C(c1c(O)c2cc(Cl)c(C)cc2oc1=O)c1c(O)c2cc(Cl)c(C)cc2oc1=O` [Example 25] as the compound, how does the “suppression of ear oedema” value (CD1 mice) read?
The value was “considered active”.

`Cc1cc2oc(=O)c(C(C(=O)OCCO)c3c(O)c4cc(C)c(C)cc4oc3=O)c(O)c2cc1C` [Example 51] was tested. Which “suppression of ear oedema” value (CD1 mice) did it give?
The value was “considered active”.

Which “suppression of ear oedema” value (CD1 mice) does the source give for `CCOC(=O)C(c1c(O)c2cccc(C(C)C)c2oc1=O)c1c(O)c2cccc(C(C)C)c2oc1=O` [Example 292] here?
The value was “considered active”.

With `O=c1oc2ccccc2c(O)c1C(c1ccc2c(c1)OCO2)c1c(O)c2ccccc2oc1=O` [Example 349] as the compound, how does the “inhibition of human 5-LO” value (human 5-LO) read?
The value was “significantly relevant activity”.

And the “CysLT1 receptor, competition with [3H]-LTD4” value (CysLT1 receptor)?
The value was “significantly relevant activity”.

And the “TxA2 receptor, competition with SQ-29548” value (TxA2 receptor)?
Its value is “significantly relevant activity”.

What about the “suppression of ear oedema” value (CD1 mice) of the same compound?
Its value is “considered active”.

Which “suppression of ear oedema” value (CD1 mice) does the source give for `CCc1ccc2oc(=O)c(C(C(C)=O)c3c(O)c4cc(CC)ccc4oc3=O)c(O)c2c1` [Example 26] here?
Its value is “considered active”.

With `CCc1cccc2c(O)c(C(C(C)=O)c3c(O)c4cccc(CC)c4oc3=O)c(=O)oc12` [Example 17] as the compound, how does the “inhibition of human 5-LO” value (human 5-LO) read?
Its value is “significantly relevant activity”.

And the “inhibition of human PDE3 activity” value (human PDE3)?
Its value is “significantly inhibited”.

And the “inhibition of human PDE4 activity” value (human PDE4)?
Its value is “significantly inhibited”.

And the “TxA2 receptor, competition with SQ-29548” value (TxA2 receptor)?
Its value is “significantly relevant activity”.

Which “suppression of ear oedema” value (CD1 mice) does the source give for `Cc1cc2oc(=O)c(C(CO)c3c(O)c4cc(C)c(C)cc4oc3=O)c(O)c2cc1C` [Example 28] here?
The value was “considered active”.

What does the source list for `CC(C)c1cccc2c(O)c(C(c3c(O)c4cccc(C(C)C)c4oc3=O)C(C)O)c(=O)oc12` (stereo not drawn) [Example 364]?
inhibition of IL-5 production (IL-5): significantly inhibited; suppression of ear oedema (CD1 mice): considered active
